Holding throughout (assay type): biochemical
Assay [1] addresses T1, DNA gyrase (GyrA S84L + wild-type GyrB) (Staphylococcus aureus, UniProt Q932M0).
T1 construct: GyrA(S84L) from strain Mu50; with GyrB
The assay can be described thus: in vitro DNA cleavage assay and DNA supercoiling assay with recombinant gyrase.

Assay [2] addresses T2, DNA gyrase (wild-type GyrA + GyrB) (Staphylococcus aureus, UniProt P20831).
T2 construct: wild-type GyrA from strain FDA209P; with GyrB
The description is as above.

Assay [3] has as its target T3, topoisomerase IV (wild-type ParC) (Staphylococcus aureus, UniProt Q2FYS4).
T3 construct: wild-type ParC from strain FDA209P; with ParE
The assay can be described thus: in vitro DNA cleavage assay with recombinant topoisomerase IV.

pIC50: −log10 of the molar value.

As to `COc1ccc2c(=O)cc(-c3ccc(O)c(OC)c3)oc2c1` [CID12261165], in assay [1], the IC50 worked out at 4 mg/L. Turning to `C[C@H]1COc2c(N3CCN(C)CC3)c(F)cc3c(=O)c(C(=O)O)cn1c23` [Levofloxacin], the “in vitro DNA cleavage assay and DNA supercoiling assay with recombinant gyrase” value in assay [2] is listed as “using levofloxacin as a compound of interest, failure of DNA supercoiling activity was decreased upon acquisition of S84L mutation”. Moreover, the pIC50 in assay [3] was 5.86.

Values taken from PMC9889749, “CID12261165, a flavonoid compound as antibacterial agents against quinolone-resistant Staphylococcus aureus” (Scientific Reports, 2023).
